Structures can show the parent of a compound that is named as a salt.
Columns and labels:
[1] = pH of a 10 mM aqueous solution of the compound; format: physicochemical; settings: 22° C.
[2] = tested on: sperm; settings: cited from earlier work
[3] = concentrations up to 20%; cited from earlier work

| SMILES | pH of a 10 mM aqueous solution [1] | effect on the viability of sperm [2] | also measured |
| --- | --- | --- | --- |
| CCCCCC(O)C=CC1C(O)CC(=O)C1CCCCCCC(=O)O.COc1cc2nc(N3CCN(C(=O)c4ccco4)CC3)nc(N)c2cc1OC [prazosin alprostadilate] | 6.32-6.38 |  |  |
| CCCCC[C@H](O)/C=C/[C@H]1[C@H](O)CC(=O)[C@@H]1CCCCCCC(=O)O [alprostadil] |  | no effect |  |
| CCCCC[C@H](O)/C=C/[C@H]1[C@H](O)CC(=O)[C@@H]1CCCCCCC(=O)O.CCN(CC)CC(=O)Nc1c(C)cccc1C [lidocaine alprostadilate] | 6.29-6.36 |  |  |
| COc1ccc(Cc2nccc3cc(OC)c(OC)cc23)cc1OC [papaverine] |  |  | effectiveness as a topical agent in erectile dysfunction [3]: not sufficiently effective for clinical use |
| COc1cc2nc(N3CCN(C(=O)c4ccco4)CC3)nc(N)c2cc1OC [prazosin hydrochloride] |  | no effect |  |

From patent US6365590B1, “Compounds, compositions and methods for treating erectile dysfunction” (Saint Louis University, priority 1998, dated 2002)
